What all share (assay): relative viability (nuclei count vs DMSO), 5 days (fraction); higher = more cells survive
Compound in the test “Tipifarnib + Foretinib”: Cn1cncc1[C@@](N)(c1ccc(Cl)cc1)c1ccc2c(c1)c(-c1cccc(Cl)c1)cc(=O)n2C [Tipifarnib] + COc1cc2c(Oc3ccc(NC(=O)C4(C(=O)Nc5ccc(F)cc5)CC4)cc3F)ccnc2cc1OCCCN1CCOCC1 [Foretinib] (partner 0.25 µM)
The method, boiled down:
(§1)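 A single step with final 0.05% Triton X-100, 1% formaldehyde and 1 ug/ml Hoechst fixed the cells and stained nuclei 5 days after treatment. Lung cancer cell lines in 1536-well plates had been treated by pin tool the day after seeding with one drug alone or a fixed anchor-drug dose plus five library-drug doses (not always all listed) in √10 steps, and nuclei were counted on 4× images. Relative viability is the ratio of nuclei in treated wells to nuclei in vehicle wells, taken as the median of duplicate plates.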

Compound in the test “Tipifarnib + Pictilisib”: Cn1cncc1[C@@](N)(c1ccc(Cl)cc1)c1ccc2c(c1)c(-c1cccc(Cl)c1)cc(=O)n2C [Tipifarnib] + CS(=O)(=O)N1CCN(Cc2cc3nc(-c4cccc5[nH]ncc45)nc(N4CCOCC4)c3s2)CC1 [Pictilisib] (partner 1 µM)
The method, boiled down:
as §1

Compound in the test “Tipifarnib + AZD7762”: Cn1cncc1[C@@](N)(c1ccc(Cl)cc1)c1ccc2c(c1)c(-c1cccc(Cl)c1)cc(=O)n2C [Tipifarnib] + NC(=O)Nc1cc(-c2cccc(F)c2)sc1C(=O)N[C@H]1CCCNC1 [AZD7762] (partner 0.2 µM)
Put shortly: as §1

Compound in the test “Tipifarnib + Vorinostat”: Cn1cncc1[C@@](N)(c1ccc(Cl)cc1)c1ccc2c(c1)c(-c1cccc(Cl)c1)cc(=O)n2C [Tipifarnib] + O=C(CCCCCCC(=O)Nc1ccccc1)NO [Vorinostat] (partner 1 µM)
The method, boiled down:
as §1

LOU-NH91: the relative viability with Tipifarnib + Foretinib (first compound 0.01 µM) amounted to 0.943; in the test with Tipifarnib + Foretinib (first compound 0.03162 µM), 1; with Tipifarnib + Foretinib (first compound 0.1 µM), 0.83; in the test with Tipifarnib + Foretinib (first compound 0.3162 µM) it was 0.695; with Tipifarnib + Foretinib (first compound 1 µM) it was 0.693; in the test with Tipifarnib + Pictilisib (first compound 0.01 µM), 0.517. Besides, the relative viability with Tipifarnib + Pictilisib (first compound 0.03162 µM) was 0.446; with Tipifarnib + Pictilisib (first compound 0.1 µM), 0.499; in the test with Tipifarnib + Pictilisib (first compound 0.3162 µM), 0.501; in the test with Tipifarnib + Pictilisib (first compound 1 µM) it was 0.388; with Tipifarnib + AZD7762 (first compound 0.01 µM) it was 0.715; with Tipifarnib + AZD7762 (first compound 0.03162 µM) it was 0.685. Moreover, the relative viability in the test with Tipifarnib + AZD7762 (first compound 0.1 µM) is 0.636; in the test with Tipifarnib + AZD7762 (first compound 0.3162 µM) it was 0.625; with Tipifarnib + AZD7762 (first compound 1 µM), 0.503; in the test with Tipifarnib + Vorinostat (first compound 0.01 µM), 0.897; with Tipifarnib + Vorinostat (first compound 0.03162 µM), 0.53; in the test with Tipifarnib + Vorinostat (first compound 0.1 µM), 0.749. The relative viability was 0.747 with Tipifarnib + Vorinostat (first compound 0.3162 µM) and 0.458 with Tipifarnib + Vorinostat (first compound 1 µM).

Turning to NCI-H2347, the relative viability in the test with Tipifarnib + Foretinib (first compound 0.01 µM) worked out at 1.34; with Tipifarnib + Foretinib (first compound 0.03162 µM) it was 0.76; with Tipifarnib + Foretinib (first compound 0.1 µM) it was 0.723; in the test with Tipifarnib + Foretinib (first compound 0.3162 µM), 0.756; with Tipifarnib + Foretinib (first compound 1 µM), 0.528; with Tipifarnib + Pictilisib (first compound 0.01 µM), 0.613. The relative viability is 0.478 with Tipifarnib + Pictilisib (first compound 0.03162 µM); 0.658 with Tipifarnib + Pictilisib (first compound 0.1 µM); 0.648 with Tipifarnib + Pictilisib (first compound 0.3162 µM); 0.404 in the test with Tipifarnib + Pictilisib (first compound 1 µM); 0.834 with Tipifarnib + AZD7762 (first compound 0.01 µM); 0.721 in the test with Tipifarnib + AZD7762 (first compound 0.03162 µM). Moreover, the relative viability came out at 0.665 in the test with Tipifarnib + AZD7762 (first compound 0.1 µM); 0.505 in the test with Tipifarnib + AZD7762 (first compound 0.3162 µM); 0.61 in the test with Tipifarnib + AZD7762 (first compound 1 µM); 0.547 with Tipifarnib + Vorinostat (first compound 0.01 µM); 0.515 in the test with Tipifarnib + Vorinostat (first compound 0.03162 µM); 0.497 with Tipifarnib + Vorinostat (first compound 0.1 µM). Besides, the relative viability in the test with Tipifarnib + Vorinostat (first compound 0.3162 µM) turned out to be 0.431; with Tipifarnib + Vorinostat (first compound 1 µM) it was 0.476.

In the case of NCI-H2126, the relative viability is 1.06 with Tipifarnib + Foretinib (first compound 0.01 µM); 1.55 in the test with Tipifarnib + Foretinib (first compound 0.03162 µM); 1.1 with Tipifarnib + Foretinib (first compound 0.1 µM); 1.12 in the test with Tipifarnib + Foretinib (first compound 0.3162 µM); 1.12 with Tipifarnib + Foretinib (first compound 1 µM); 0.491 in the test with Tipifarnib + Pictilisib (first compound 0.01 µM). For the same cell line, the relative viability stood at 0.492 with Tipifarnib + Pictilisib (first compound 0.03162 µM); 0.518 with Tipifarnib + Pictilisib (first compound 0.1 µM); 0.478 in the test with Tipifarnib + Pictilisib (first compound 0.3162 µM); 0.391 in the test with Tipifarnib + Pictilisib (first compound 1 µM); 1.01 with Tipifarnib + AZD7762 (first compound 0.01 µM); 1 with Tipifarnib + AZD7762 (first compound 0.03162 µM). The relative viability with Tipifarnib + AZD7762 (first compound 0.1 µM) is 0.991; with Tipifarnib + AZD7762 (first compound 0.3162 µM) it was 0.962; with Tipifarnib + AZD7762 (first compound 1 µM) it was 0.716; in the test with Tipifarnib + Vorinostat (first compound 0.01 µM), 0.797; in the test with Tipifarnib + Vorinostat (first compound 0.03162 µM), 0.752; with Tipifarnib + Vorinostat (first compound 0.1 µM), 0.763. For the same cell line, the relative viability in the test with Tipifarnib + Vorinostat (first compound 0.3162 µM) worked out at 0.768; with Tipifarnib + Vorinostat (first compound 1 µM), 0.409.

As for HCC-827, the relative viability with Tipifarnib + Foretinib (first compound 0.01 µM) amounted to 1.06; in the test with Tipifarnib + Foretinib (first compound 0.03162 µM), 1.05; in the test with Tipifarnib + Foretinib (first compound 0.1 µM) it was 0.741; in the test with Tipifarnib + Foretinib (first compound 0.3162 µM) it was 0.63; in the test with Tipifarnib + Foretinib (first compound 1 µM) it was 0.568; with Tipifarnib + Pictilisib (first compound 0.01 µM) it was 0.955. In addition, the relative viability with Tipifarnib + Pictilisib (first compound 0.03162 µM) was found to be 0.905; with Tipifarnib + Pictilisib (first compound 0.1 µM) it was 0.775; with Tipifarnib + Pictilisib (first compound 0.3162 µM), 0.653; with Tipifarnib + Pictilisib (first compound 1 µM), 0.675; with Tipifarnib + AZD7762 (first compound 0.01 µM), 0.236; with Tipifarnib + AZD7762 (first compound 0.03162 µM), 0.287. The relative viability with Tipifarnib + AZD7762 (first compound 0.1 µM) came out at 0.206; in the test with Tipifarnib + AZD7762 (first compound 0.3162 µM) it was 0.207; with Tipifarnib + AZD7762 (first compound 1 µM), 0.178; with Tipifarnib + Vorinostat (first compound 0.01 µM), 0.926; with Tipifarnib + Vorinostat (first compound 0.03162 µM), 0.674; with Tipifarnib + Vorinostat (first compound 0.1 µM) it was 0.69. Moreover, the relative viability turned out to be 0.485 with Tipifarnib + Vorinostat (first compound 0.3162 µM) and 0.294 with Tipifarnib + Vorinostat (first compound 1 µM).

Regarding NCI-H3122, the relative viability turned out to be 0.957 with Tipifarnib + Foretinib (first compound 0.01 µM); 0.796 with Tipifarnib + Foretinib (first compound 0.03162 µM); 0.744 with Tipifarnib + Foretinib (first compound 0.1 µM); 0.693 with Tipifarnib + Foretinib (first compound 0.3162 µM); 0.544 with Tipifarnib + Foretinib (first compound 1 µM); 0.6 with Tipifarnib + Pictilisib (first compound 0.01 µM). Also, the relative viability was 0.489 in the test with Tipifarnib + Pictilisib (first compound 0.03162 µM); 0.442 with Tipifarnib + Pictilisib (first compound 0.1 µM); 0.347 with Tipifarnib + Pictilisib (first compound 0.3162 µM); 0.27 with Tipifarnib + Pictilisib (first compound 1 µM); 0.967 with Tipifarnib + AZD7762 (first compound 0.01 µM); 0.971 in the test with Tipifarnib + AZD7762 (first compound 0.03162 µM). Besides, the relative viability with Tipifarnib + AZD7762 (first compound 0.1 µM) came out at 0.714; in the test with Tipifarnib + AZD7762 (first compound 0.3162 µM) it was 0.556; in the test with Tipifarnib + AZD7762 (first compound 1 µM), 0.348; with Tipifarnib + Vorinostat (first compound 0.01 µM) it was 1.12; with Tipifarnib + Vorinostat (first compound 0.03162 µM), 0.962; with Tipifarnib + Vorinostat (first compound 0.1 µM), 0.709. Also, the relative viability with Tipifarnib + Vorinostat (first compound 0.3162 µM) stood at 0.538; in the test with Tipifarnib + Vorinostat (first compound 1 µM), 0.219.

In the case of HOP-62, the relative viability with Tipifarnib + Foretinib (first compound 0.01 µM) is 0.809; in the test with Tipifarnib + Foretinib (first compound 0.03162 µM), 0.671; with Tipifarnib + Foretinib (first compound 0.1 µM) it was 0.464; with Tipifarnib + Foretinib (first compound 0.3162 µM), 0.305; in the test with Tipifarnib + Foretinib (first compound 1 µM), 0.542; in the test with Tipifarnib + Pictilisib (first compound 0.01 µM) it was 0.506. Besides, the relative viability with Tipifarnib + Pictilisib (first compound 0.03162 µM) turned out to be 0.158; in the test with Tipifarnib + Pictilisib (first compound 0.1 µM) it was 0.24; with Tipifarnib + Pictilisib (first compound 0.3162 µM), 0.3; with Tipifarnib + Pictilisib (first compound 1 µM), 0.26; with Tipifarnib + AZD7762 (first compound 0.01 µM), 0.573; with Tipifarnib + AZD7762 (first compound 0.03162 µM) it was 0.169. Also, the relative viability was 0.196 with Tipifarnib + AZD7762 (first compound 0.1 µM); 0.152 with Tipifarnib + AZD7762 (first compound 0.3162 µM); 0.261 in the test with Tipifarnib + AZD7762 (first compound 1 µM); 0.624 in the test with Tipifarnib + Vorinostat (first compound 0.01 µM); 0.186 in the test with Tipifarnib + Vorinostat (first compound 0.03162 µM); 0.335 with Tipifarnib + Vorinostat (first compound 0.1 µM). Besides, the relative viability with Tipifarnib + Vorinostat (first compound 0.3162 µM) came out at 0.243; with Tipifarnib + Vorinostat (first compound 1 µM) it was 0.203.

The values are drawn from the supplement of paper PMC10307832.
